Laboratory results taken from patent US20260308159A1, “BICYCLIC HETEROARYLAMIDES HAVING GPR68 MODULATING ACTIVITY” (RECURSION PHARMACEUTICALS, INC., priority 2023, published 2026).

target: T1, human GPR68 (Homo sapiens, UniProt Q15743); experiment: GPR68 Biochemical Assay (Promega GloSensor cAMP assay, GPR68 antagonism); format: cell-based; details: HEK293T cells transiently expressing hGPR68, antagonism of pH 5.5 stimulated cAMP, 15 min, read-out: hGPR68 IC50
T1 construct: encoding full-length human GPR68 (uniprot ID: Q15743); expressed in transfected cells; host or cells: HEK293T
Procedure: GPR68 antagonism was determined using the Promega GloSensor™ CAMP assay (F. I. Wang et al., Methods 2021, S1046-2023 (21) 00249-8). HEK293T cells (obtained from ECACC, Cat 12022001, Lot no. 17E044) were cultured in T175 flasks (Greiner, Cat 660175) in DMEM (Gibco, Cat 11995-065) supplemented with 10% Fetal Bovine Serum (Gibco Cat 16000-044), and 100 u/mL Pen-Strep (Gibco, Cat 15140) at 37° C. and 5% CO2. GPR68 expression was achieved by transient transfection with a mammalian expression plasmid encoding full-length human GPR68 (uniprot ID: Q15743) under control of a CMV promoter. The day before transfection, cell media was aspirated and HEK293T cells were incubated with accutase (Sigma, Cat A6964) for 3-4 minutes 37° C. and 5% CO2 before being manually detached with excess DMEM and trituration. Cell density was determined by automated cell counting (Countess, Invitrogen) and adjusted to 6×10^6 cells/20 mL and transferred to 15 cm dishes (Thermo Fisher, Cat 130183) for overnight incubation at 37° C. and 5% CO2. The next day separate mammalian expression plasmids encoding hGPR68 (4 μg) and Promega GloSensor (8 μg) were diluted to 1 mL in Opti-MEM (Thermo Fisher Scientific, Cat 31985070) and incubated with 30 μL of lipofectamine 3000 (also diluted to 1 mL in Opti-MEM) for 15 minutes at room temperature and subsequently added dropwise to the plated cells. Post transfection cells were then incubated at 37° C. and 5% CO2 for at least 16 hours before transfer to assay plates the following day. Transfer was conducted by washing cells with PBS and incubating with accutase for 3-4 minutes 37° C. and 5% CO2 before being manually detached with excess DMEM and mild trituration. The suspension was then centrifuged at 192 RCF for 4 minutes in a 50 mL centrifuge tube (Greiner, Cat 227261).
Supernatant was removed by aspiration and the cell pellet was resuspended in DMEM+1% dialysed FBS (Gibco, Cat 26400-044) and 100 u/mL Pen-Strep to a cell density of 500 cells/μL. Cells were plated into poly-L-Lysine coated 384-well white assay plates (Corning, Cat 3570) at a final volume of 40 µL and a density of 20,000 cells/well before overnight incubation at 37° C. and 5% CO2. The following day media was manually ejected from the 384-well assay plate and replaced with 10 μL GloSensor substrate (Promega, Cat E1291) prepared in pH 8.0 assay buffer (1×HBSS, 10 mM HEPES, 10 mM MOPS). Cells were incubated with this solution for 60 minutes at room temperature in the dark. Test compounds or an equivalent volume of DMSO (vehicle) were added to compounds plates to create a 9-point, half-log concentration series for each compound with a maximum final assay concentration of 50 μM and a consistent final DMSO concentration of 0.5%. Assay buffer with 0.1% BSA and 0.01% ascorbic acid was prepared at three pHs: pH 8.0, pH 5.5 and pH 4.5. pH 8.0 and 4.5 were added to the compound plate as maximum and minimum effect controls whilst pH 5.5 was added to all compound wells to stimulate GPR68 to a level corresponding to […] of maximal stimulation after addition to the cells already in pH 8.0 (assay acceptance criteria range 70-90%). DMSO/Compound and buffer was added to the plated cells containing the GloSensor substrate and incubated for 15 minutes at room temperature before being read on a microplate reader (BMG PHERAstar, optic module LUM Plus with Gain 3600). Data was exported and analysed in excel and Graphpad prism (version 9). Assay QC acceptance criteria required the maximum and minimum controls to return a Z′≥0.5, the EC80 to be 80%±10% of expected and the reference ligand pIC50 to be within one-half-log unit of its historical IC50. Percent inhibition was calculated using the mean EC80 (pH 5.5) and mean minimum effect control (pH 8.0). Data were plotted as percentage inhibition, average±SEM. IC50, Emax, Emin, Actual max, actual min, R^2 and fit confidence were calculated using Graphpad Prism's sigmoidal dose-response function.

T1 sequence (Q15743 whole entry): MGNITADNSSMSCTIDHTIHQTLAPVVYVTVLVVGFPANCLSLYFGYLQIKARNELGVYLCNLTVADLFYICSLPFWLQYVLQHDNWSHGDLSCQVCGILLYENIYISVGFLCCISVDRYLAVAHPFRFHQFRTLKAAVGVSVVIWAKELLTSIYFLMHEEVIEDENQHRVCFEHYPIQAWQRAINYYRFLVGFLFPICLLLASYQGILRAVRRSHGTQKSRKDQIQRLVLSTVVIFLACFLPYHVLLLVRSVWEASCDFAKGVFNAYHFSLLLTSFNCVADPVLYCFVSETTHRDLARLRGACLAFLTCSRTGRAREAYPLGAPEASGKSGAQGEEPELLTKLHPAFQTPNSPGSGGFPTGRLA

IC50 [nM]	Structure (SMILES)
50 to 500	N#Cc1nn2c(C(=O)NC3Cc4ccccc4C3)ccnc2c1C(N)=O [Compound 21, 2-cyano-N7-indan-2-yl-pyrazolo[1,5-a]pyrimidine-3,7-dicarboxamide]
< 50	COCc1nn2c(C(=O)N[C@H]3C[C@@H](OC(F)(F)F)C3)ccnc2c1C(N)=O [Compound 61, 2-(methoxymethyl)-N7-[cis-3-(trifluoromethoxy)cyclobutyl]pyrazolo[1,5-a]pyrimidine-3,7-dicarboxamide]
< 50	NC(=O)c1c(C2CC2)nn2c(C(=O)N[C@H]3C[C@@H](OC(F)(F)F)C3)ccnc12 [Compound 111, 2-cyclopropyl-N7-[cis-3-(trifluoromethoxy)cyclobutyl]pyrazolo[1,5-a]pyrimidine-3,7-dicarboxamide]
50 to 500	COCc1nc2c(C(=O)NC3Cc4cccnc4C3)ccnn2c1C(N)=O (stereo not shown) [Compound 104, N8-(6,7-dihydro-5H-cyclopenta[b]pyridin-6-yl)-2-(methoxymethyl)imidazo[1,2-b]pyridazine-3,8-dicarboxamide]
500 to 5000	NC(=O)c1cnn2c(C(=O)NCC3CCC(F)(F)CC3)ccnc12 [Compound 101, N7-[(4,4-difluorocyclohexyl)methyl]pyrazolo[1,5-a]pyrimidine-3,7-dicarboxamide]
< 50	CNc1nn2c(C(=O)NC3Cc4ccccc4C3)ccnc2c1C(N)=O [Compound 159, N7-indan-2-yl-2-(methylamino)pyrazolo[1,5-a]pyrimidine-3,7-dicarboxamide]
50 to 500	COCc1nc2c(C(=O)N[C@H]3CCS(=O)(=O)c4ccccc43)ccnn2c1C(N)=O [Compound 220, 2-(methoxymethyl)-N8-[(4S)-1,1-dioxo-3,4-dihydro-2H-thiochromen-4-yl]imidazo[1,2-b]pyridazine-3,8-dicarboxamide]
50 to 500	COCc1nn2c(C(=O)NC3Cc4cccnc4C3)ccnc2c1C(N)=O (single isomer, unassigned) [Compound 146, N7-(6,7-dihydro-5H-cyclopenta[b]pyridin-6-yl)-2-(methoxymethyl)pyrazolo[1,5-a]pyrimidine-3,7-dicarboxamide]
< 50	COCc1nn2c(C(=O)NC3Cc4ccc(Cl)cc4C3)ccnc2c1C(N)=O (stereo not shown) [Compound 87, N7-(5-chloroindan-2-yl)-2-(methoxymethyl)pyrazolo[1,5-a]pyrimidine-3,7-dicarboxamide]
50 to 500	COCc1nc2c(C(=O)NC3CCC(F)(F)CC3)ncnn2c1C(N)=O [Compound 212, N4-(4,4-difluorocyclohexyl)-6-(methoxymethyl)imidazo[2,1-f][1,2,4]triazine-4,7-dicarboxamide]
< 50	NC(=O)c1c(C2CC2)nc2c(C(=O)NC3CS(=O)(=O)c4ccccc43)ccnn12 (stereo not shown) [Compound 222, 2-cyclopropyl-N8-(1,1-dioxo-2,3-dihydrobenzothiophen-3-yl) imidazo[1,2-b]pyridazine-3,8-dicarboxamide]
50 to 500	COCc1nc2c(C(=O)NC3CCC(F)(F)CC3)cc(C)nn2c1C(N)=O [Compound 218, N8-(4,4-difluorocyclohexyl)-2-(methoxymethyl)-6-methyl-imidazo[1,2-b]pyridazine-3,8-dicarboxamide]
50 to 500	COCc1nc2c(C(=O)N[C@H]3C[C@@H](OC(F)(F)F)C3)ccnn2c1C(N)=O [Compound 55, 2-(methoxymethyl)-N8-[cis-3-(trifluoromethoxy)cyclobutyl]imidazo[1,2-b]pyridazine-3,8-dicarboxamide]
< 50	Cc1cc(C(=O)NC2CCS(=O)(=O)c3ccccc32)n2nc(C3CC3)c(C(N)=O)c2n1 (stereo not shown) [Compound 242, 2-cyclopropyl-N7-(1,1-dioxo-3,4-dihydro-2H-thiochromen-4-yl)-5-methyl-pyrazolo[1,5-a]pyrimidine-3,7-dicarboxamide]
< 50	COCc1nn2c(C(=O)NC3COc4ccccc43)ccnc2c1C(N)=O (stereo not shown) [Compound 75, N7-(2,3-dihydrobenzofuran-3-yl)-2-(methoxymethyl)pyrazolo[1,5-a]pyrimidine-3,7-dicarboxamide]
50 to 500	COCc1nn2c(C(=O)NC3COc4cc(F)cc(F)c4C3)ccnc2c1C(N)=O (stereo not shown) [Compound 185, N7-(5,7-difluorochroman-3-yl)-2-(methoxymethyl)pyrazolo[1,5-a]pyrimidine-3,7-dicarboxamide]
< 50	COCc1nn2c(C(=O)N[C@@H]3Cc4ccccc4[C@@H]3C)ccnc2c1C(N)=O [Compound 201]
50000 to 100000	CNC(=O)c1c(-c2ccccc2)nn2c(C(=O)NC3Cc4ccccc4C3)cccc12 [Compound 40, N7-indan-2-yl-N3-methyl-2-phenyl-pyrazolo[1,5-a]pyridine-3,7-dicarboxamide]
500 to 5000	CN(C)Cc1nn2c(C(=O)NC3Cc4ccccc4C3)ccnc2c1C(N)=O [Compound 29, 2-[(dimethylamino)methyl]-N7-indan-2-yl-pyrazolo[1,5-a]pyrimidine-3,7-dicarboxamide]
500 to 5000	N#C[C@H]1C[C@@H](NC(=O)c2ccnc3c(C(N)=O)cnn23)C1 [Compound 9, N7-(cis-3-cyanocyclobutyl)pyrazolo[1,5-a]pyrimidine-3,7-dicarboxamide]
< 50	NC(=O)c1c(C2CC2)nn2c(C(=O)NC3Cc4ccccc4C3)ccnc12 [Compound 130, 2-cyclopropyl-N7-indan-2-yl-pyrazolo[1,5-a]pyrimidine-3,7-dicarboxamide]
500 to 5000	NC(=O)c1cnn2c(C(=O)NC3CNc4ccccc4C3)ccnc12 (stereo not shown) [Compound 5, N7-(1,2,3,4-tetrahydroquinolin-3-yl)pyrazolo[1,5-a]pyrimidine-3,7-dicarboxamide]
< 50	COCc1nn2c(C(=O)NC3CC(F)(F)c4ccccc43)ccnc2c1C(N)=O (single isomer, unassigned) [Compound 174, N7-(3,3-difluoroindan-1-yl)-2-(methoxymethyl)pyrazolo[1,5-a]pyrimidine-3,7-dicarboxamide]
< 50	CCCc1nn2c(C(=O)N[C@H]3C[C@@H](OC(F)(F)F)C3)ccnc2c1C(N)=O [Compound 137, 2-propyl-N7-[cis-3-(trifluoromethoxy)cyclobutyl]pyrazolo[1,5-a]pyrimidine-3,7-dicarboxamide]
< 50	NC(=O)c1c(C2CC2)nn2c(C(=O)NC3CS(=O)(=O)c4ccccc43)ccnc12 (stereo not shown) [Compound 231, 2-cyclopropyl-N7-(1,1-dioxo-2,3-dihydrobenzothiophen-3-yl)pyrazolo[1,5-a]pyrimidine-3,7-dicarboxamide]
< 50	COCc1nn2c(C(=O)NC3CS(=O)(=O)c4ccccc43)ccnc2c1C(N)=O (stereo not shown) [Compound 168, N7-(1,1-dioxo-2,3-dihydrobenzothiophen-3-yl)-2-(methoxymethyl)pyrazolo[1,5-a]pyrimidine-3,7-dicarboxamide]
< 50	NC(=O)c1c(C2CC2)nc2c(C(=O)N[C@H]3C[C@@H](OC(F)(F)F)C3)ccnn12 [Compound 151, 2-cyclopropyl-N8-[cis-3-(trifluoromethoxy)cyclobutyl]imidazo[1,2-b]pyridazine-3,8-dicarboxamide]
50000 to 100000	COCc1nn2c(C(=O)NCC3(N(C)C)CCCCC3)ccnc2c1C(N)=O [Compound 90, N7-[[1-(dimethylamino)cyclohexyl]methyl]-2-(methoxymethyl)pyrazolo[1,5-a]pyrimidine-3,7-dicarboxamide]
